In PubChem BioAssay (NCI):
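In this assay, cells in 96-well plates receive the compound at five concentrations for 48 hours. Endpoints are linearly interpolated between the surrounding concentrations. Here, GI50 denotes the concentration required for 50% inhibition of growth. TGI: total growth inhibition.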

Experiments:
Assay in all cases: NCI tumour cell line growth inhibition, 48 h
HT29 colon = system: HT29 colon
RPMI-8226 leukemia = system: RPMI-8226 leukemia
MDA-MB-231 breast = system: MDA-MB-231 breast
SNB-19 CNS = system: SNB-19 CNS
EKVX NSCLC = system: EKVX NSCLC
MALME-3M melanoma = system: MALME-3M melanoma
NCI/ADR-RES ovarian = system: NCI/ADR-RES ovarian
SF-268 CNS = system: SF-268 CNS
DU-145 prostate = system: DU-145 prostate
NCI-H23 lung = system: NCI-H23 lung
NCI-H522 lung = system: NCI-H522 lung
MDA-MB-435 = system: MDA-MB-435
LOX IMVI melanoma = system: LOX IMVI melanoma
UO-31 renal = system: UO-31 renal
HCT-15 colon = system: HCT-15 colon
U251 CNS = system: U251 CNS
NCI-H226 lung = system: NCI-H226 lung
SK-OV-3 ovarian = system: SK-OV-3 ovarian
SW-620 colon = system: SW-620 colon
UACC-62 melanoma = system: UACC-62 melanoma
SF-539 CNS = system: SF-539 CNS
SR leukemia = system: SR leukemia
HCC-2998 colon = system: HCC-2998 colon
KM12 colon = system: KM12 colon
ACHN renal = system: ACHN renal
786-0 renal = system: 786-0 renal
SF-295 CNS = system: SF-295 CNS
BT-549 breast = system: BT-549 breast
OVCAR-4 ovarian = system: OVCAR-4 ovarian
OVCAR-5 ovarian = system: OVCAR-5 ovarian
HCT-116 colon = system: HCT-116 colon
NCI-H460 lung = system: NCI-H460 lung
TK-10 renal = system: TK-10 renal
HOP-92 NSCLC = system: HOP-92 NSCLC
A498 renal = system: A498 renal
SNB-75 CNS = system: SNB-75 CNS
HL-60(TB) leukemia = system: HL-60(TB) leukemia
MOLT-4 leukemia = system: MOLT-4 leukemia
RXF 393 renal = system: RXF 393 renal
MCF7 breast = system: MCF7 breast
T-47D breast = system: T-47D breast
COLO 205 colon = system: COLO 205 colon
M14 melanoma = system: M14 melanoma
A549 NSCLC = system: A549 NSCLC
CAKI-1 renal = system: CAKI-1 renal
UACC-257 melanoma = system: UACC-257 melanoma
HS 578T breast = system: HS 578T breast
SK-MEL-28 melanoma = system: SK-MEL-28 melanoma
OVCAR-3 ovarian = system: OVCAR-3 ovarian
SK-MEL-5 melanoma = system: SK-MEL-5 melanoma
SK-MEL-2 melanoma = system: SK-MEL-2 melanoma
HOP-62 NSCLC = system: HOP-62 NSCLC
OVCAR-8 ovarian = system: OVCAR-8 ovarian
IGROV1 ovarian = system: IGROV1 ovarian

Nc1ccc(S(=O)(=O)Nc2nnc(S(N)(=O)=O)s2)cc1
TGI (HT29 colon): > 100 µM | TGI (RPMI-8226 leukemia): > 100 µM | TGI (MDA-MB-231 breast): > 100 µM | TGI (SNB-19 CNS): > 100 µM | TGI (EKVX NSCLC): > 100 µM | TGI (MALME-3M melanoma): > 100 µM | TGI (NCI/ADR-RES ovarian): > 100 µM | TGI (SF-268 CNS): > 100 µM | TGI (DU-145 prostate): > 100 µM | TGI (NCI-H23 lung): > 100 µM | TGI (NCI-H522 lung): > 100 µM | TGI (MDA-MB-435): > 100 µM | TGI (LOX IMVI melanoma): > 100 µM | TGI (UO-31 renal): > 100 µM | TGI (HCT-15 colon): > 100 µM | TGI (U251 CNS): > 100 µM | TGI (NCI-H226 lung): > 100 µM | TGI (SK-OV-3 ovarian): > 100 µM | TGI (SW-620 colon): > 100 µM | TGI (UACC-62 melanoma): > 100 µM | TGI (SF-539 CNS): > 100 µM | TGI (SR leukemia): > 100 µM | TGI (HCC-2998 colon): > 100 µM | TGI (KM12 colon): > 100 µM | TGI (ACHN renal): > 100 µM | TGI (786-0 renal): > 100 µM | TGI (SF-295 CNS): > 100 µM | TGI (BT-549 breast): > 100 µM | TGI (OVCAR-4 ovarian): > 100 µM | TGI (OVCAR-5 ovarian): > 100 µM | TGI (HCT-116 colon): > 100 µM | TGI (NCI-H460 lung): > 100 µM | TGI (TK-10 renal): > 100 µM | TGI (HOP-92 NSCLC): > 100 µM | TGI (A498 renal): > 100 µM | TGI (SNB-75 CNS): > 100 µM | TGI (HL-60(TB) leukemia): > 100 µM | TGI (MOLT-4 leukemia): > 100 µM | TGI (RXF 393 renal): > 100 µM | TGI (MCF7 breast): > 100 µM | TGI (T-47D breast): > 100 µM | TGI (COLO 205 colon): > 100 µM | TGI (M14 melanoma): > 100 µM | TGI (A549 NSCLC): > 100 µM | TGI (CAKI-1 renal): > 100 µM

CCS(=O)(=O)N1CCC(C(C)n2c(C)c(C(=O)NCc3c(OC)cc(C)[nH]c3=O)c3ccccc32)CC1 (configuration not stated)
GI50 (UACC-257 melanoma): > 100 µM | TGI (UACC-257 melanoma): > 100 µM | GI50 (HT29 colon): > 100 µM | TGI (HT29 colon): > 100 µM | GI50 (EKVX NSCLC): > 100 µM | TGI (EKVX NSCLC): > 100 µM | GI50 (NCI/ADR-RES ovarian): > 100 µM | TGI (NCI/ADR-RES ovarian): > 100 µM | GI50 (SF-268 CNS): > 100 µM | TGI (SF-268 CNS): > 100 µM | GI50 (DU-145 prostate): > 100 µM | TGI (DU-145 prostate): > 100 µM | GI50 (NCI-H23 lung): > 100 µM | TGI (NCI-H23 lung): > 100 µM | GI50 (NCI-H522 lung): > 100 µM | TGI (NCI-H522 lung): > 100 µM | GI50 (MDA-MB-435): > 100 µM | TGI (MDA-MB-435): > 100 µM | GI50 (LOX IMVI melanoma): > 100 µM | TGI (LOX IMVI melanoma): > 100 µM | GI50 (UO-31 renal): > 100 µM | TGI (UO-31 renal): > 100 µM | GI50 (HS 578T breast): > 100 µM | TGI (HS 578T breast): > 100 µM | GI50 (HCT-15 colon): > 100 µM | TGI (HCT-15 colon): > 100 µM | GI50 (U251 CNS): > 100 µM | TGI (U251 CNS): > 100 µM | GI50 (NCI-H226 lung): > 100 µM | TGI (NCI-H226 lung): > 100 µM | GI50 (SK-MEL-28 melanoma): > 100 µM | TGI (SK-MEL-28 melanoma): > 100 µM | GI50 (SK-OV-3 ovarian): > 100 µM | TGI (SK-OV-3 ovarian): > 100 µM | GI50 (SW-620 colon): > 100 µM | TGI (SW-620 colon): > 100 µM | GI50 (SF-539 CNS): > 100 µM | TGI (SF-539 CNS): > 100 µM | GI50 (HCC-2998 colon): > 100 µM | TGI (HCC-2998 colon): > 100 µM | GI50 (KM12 colon): > 100 µM | TGI (KM12 colon): > 100 µM | GI50 (ACHN renal): > 100 µM | TGI (ACHN renal): > 100 µM | GI50 (SF-295 CNS): > 100 µM | TGI (SF-295 CNS): > 100 µM | GI50 (OVCAR-3 ovarian): > 100 µM | TGI (OVCAR-3 ovarian): > 100 µM | GI50 (SK-MEL-5 melanoma): > 100 µM | TGI (SK-MEL-5 melanoma): > 100 µM | GI50 (OVCAR-4 ovarian): > 100 µM | TGI (OVCAR-4 ovarian): > 100 µM | GI50 (OVCAR-5 ovarian): > 100 µM | TGI (OVCAR-5 ovarian): > 100 µM | GI50 (SK-MEL-2 melanoma): > 100 µM | TGI (SK-MEL-2 melanoma): > 100 µM | GI50 (NCI-H460 lung): > 100 µM | TGI (NCI-H460 lung): > 100 µM | GI50 (TK-10 renal): > 100 µM | TGI (TK-10 renal): > 100 µM | GI50 (A498 renal): > 100 µM | TGI (A498 renal): > 100 µM | GI50 (SNB-75 CNS): 36.3 µM | TGI (SNB-75 CNS): > 100 µM | GI50 (HOP-62 NSCLC): > 100 µM | TGI (HOP-62 NSCLC): > 100 µM | GI50 (OVCAR-8 ovarian): > 100 µM | TGI (OVCAR-8 ovarian): > 100 µM | GI50 (RXF 393 renal): > 100 µM | TGI (RXF 393 renal): > 100 µM | GI50 (MCF7 breast): 25.8 µM | TGI (MCF7 breast): > 100 µM | GI50 (T-47D breast): > 100 µM | TGI (T-47D breast): > 100 µM | GI50 (COLO 205 colon): > 100 µM | TGI (COLO 205 colon): > 100 µM | GI50 (IGROV1 ovarian): 57.6 µM | TGI (IGROV1 ovarian): > 100 µM | GI50 (A549 NSCLC): > 100 µM | TGI (A549 NSCLC): > 100 µM | GI50 (CAKI-1 renal): > 100 µM | TGI (CAKI-1 renal): > 100 µM
